According to ChEMBL document CHEMBL5104164, “Design, synthesis, and biological evaluation of pyrrolopyrimidine derivatives as novel Bruton's tyrosine kinase (BTK) inhibitors” (Eur J Med Chem, 2022):
The source made the active and inactive calls. The rule behind the calls is not given here.

Tests used:
[1] = Toxicity in female CB-17 SCID nude mouse xenografted with human TMD8 cells assessed as reduction in lymphocytes at 50 mg/kg, po administered twice daily for 21 days; assay type: organism-based; details: in vivo, 504 h, time 21 day
[2] = Half-life in male BALB/c mouse at 10 mg/kg, po; assay type: ADME, organism-based; details: in vivo
[3] = AUC (0 to infinity) in male BALB/c mouse at 10 mg/kg, po; assay type: ADME, organism-based; set-up: time infinity, dose 10 mg/kg, route po; details: in vivo
TMD8 [4] = experiment: In vivo inhibition of BTK in female CB-17 SCID nude mouse xenografted with human TMD8 cells assessed as reduction in p-BTK (Tyr223) expression at 12.5 to 50 mg/kg, po administered twice daily for 21 days; assay type: functional, organism-based; details: dose 12.5-50 mg/kg, time 21.0 day
TMD8 [5] = experiment: Induction of apoptosis in human TMD8 cells assessed as apoptotic cells 10 nM incubated for 72 hrs by AnnexinV-FITC/propidium iodide staining based flow cytometric analysis; assay type: functional
TMD8 [6] = experiment: Cell cycle arrest in human TMD8 cells assessed as accumulation of cells at G2 phase at 100 nM after 48 hrs by propidium iodide staining based flow cytometric analysis (reference value: 13.4%); assay type: functional
[7] = Tmax in male BALB/c mouse at 2 mg/kg, iv; assay type: ADME, organism-based; details: in vivo
TMD8 [8] = experiment: Cell cycle arrest in human TMD8 cells assessed as accumulation of cells at G0/G1 phase at 100 nM after 48 hrs by propidium iodide staining based flow cytometric analysis (reference value: 32.9%); assay type: functional
Ramos = experiment: Antiproliferative activity against human Ramos cells incubated for 72 hrs by CellTiter-Glo assay; assay type: functional, cell-based
[9] = Toxicity in female CB-17 SCID nude mouse xenografted with human TMD8 cells assessed as effect on red blood cells at 50 mg/kg, po administered twice daily for 21 days; assay type: organism-based; details: in vivo, 504 h, time 21 day
TMD8 [10] = experiment: Induction of apoptosis in human TMD8 cells assessed as apoptotic cells 1000 nM incubated for 72 hrs by AnnexinV-FITC/propidium iodide staining based flow cytometric analysis; assay type: functional
[11] = Antiproliferative activity against human MINO cells incubated for 72 hrs by CellTiter-Glo assay; assay type: functional, cell-based
[12] = Mutagenicity in Salmonella typhimurium TA1535 at 1.5 to 1000 ug per plate by AMES test; assay type: toxicity, Salmonella enterica subsp. enterica serovar Typhimurium; details: dose 1.5-1000 µg
[13] = Cmax in male BALB/c mouse at 10 mg/kg, po; assay type: ADME, organism-based; set-up: dose 10 mg/kg, route po; details: in vivo
SUD4 = experiment: Antiproliferative activity against human SU-DHL-4 cells incubated for 72 hrs by CellTiter-Glo assay; assay type: functional, cell-based; details: SU-DHL-4, 72 h
[14] = Mutagenicity in Salmonella typhimurium TA1537 at 1.5 to 1000 ug per plate by AMES test; assay type: toxicity, Salmonella enterica subsp. enterica serovar Typhimurium; details: dose 1.5-1000 µg
[15] = Toxicity in female CB-17 SCID nude mouse xenografted with human TMD8 cells assessed as effect on body weight at 12.5 to 50 mg/kg, po administered twice daily for 21 days; assay type: organism-based; details: in vivo, 504 h, dose 12.5-50 mg/kg, time 21 day
[16] = Clearance in male BALB/c mouse at 2 mg/kg, iv; assay type: ADME, organism-based; details: in vivo
[17] = Cmax in male BALB/c mouse at 2 mg/kg, iv; assay type: ADME, organism-based; set-up: dose 2 mg/kg, route iv; details: in vivo
[18] = Mutagenicity in Salmonella typhimurium TA100 at 1.5 to 1000 ug per plate by AMES test; assay type: toxicity, Salmonella enterica subsp. enterica serovar Typhimurium; details: dose 1.5-1000 µg
TMD8 [19] = experiment: Cell cycle arrest in human TMD8 cells assessed as accumulation of cells at S phase at 100 nM after 48 hrs by propidium iodide staining based flow cytometric analysis (reference value: 49.3%); assay type: functional
[20] = Mutagenicity in Salmonella typhimurium TA98 at 1.5 to 1000 ug per plate by AMES test; assay type: toxicity, Salmonella enterica subsp. enterica serovar Typhimurium; details: dose 1.5-1000 µg
[21] = target: T1, Tyrosine-protein kinase BTK (Homo sapiens, UniProt Q06187); experiment: Inhibition of BTK in human TMD8 cells assessed as inhibition of BTK autophosphorylation at Tyr223 measured by Western blot analysis; assay type: cell-based
[22] = Oral bioavailability in male BALB/c mouse; assay type: ADME, organism-based; details: in vivo
[23] = Mutagenicity in Salmonella typhimurium TA100 at 1.5 to 1000 ug per plate in presence of liver microsomes by AMES test; assay type: toxicity, Salmonella enterica subsp. enterica serovar Typhimurium; details: dose 1.5-1000 µg
[24] = target: T2, Tyrosine-protein kinase JAK3 (Homo sapiens) (UniProt P52333); experiment: Inhibition of Jak3 (unknown origin) assessed as residual percent of control at 1 uM measured by DiscoverX kinome scan assay relative to control
T2 sequence (whole entry): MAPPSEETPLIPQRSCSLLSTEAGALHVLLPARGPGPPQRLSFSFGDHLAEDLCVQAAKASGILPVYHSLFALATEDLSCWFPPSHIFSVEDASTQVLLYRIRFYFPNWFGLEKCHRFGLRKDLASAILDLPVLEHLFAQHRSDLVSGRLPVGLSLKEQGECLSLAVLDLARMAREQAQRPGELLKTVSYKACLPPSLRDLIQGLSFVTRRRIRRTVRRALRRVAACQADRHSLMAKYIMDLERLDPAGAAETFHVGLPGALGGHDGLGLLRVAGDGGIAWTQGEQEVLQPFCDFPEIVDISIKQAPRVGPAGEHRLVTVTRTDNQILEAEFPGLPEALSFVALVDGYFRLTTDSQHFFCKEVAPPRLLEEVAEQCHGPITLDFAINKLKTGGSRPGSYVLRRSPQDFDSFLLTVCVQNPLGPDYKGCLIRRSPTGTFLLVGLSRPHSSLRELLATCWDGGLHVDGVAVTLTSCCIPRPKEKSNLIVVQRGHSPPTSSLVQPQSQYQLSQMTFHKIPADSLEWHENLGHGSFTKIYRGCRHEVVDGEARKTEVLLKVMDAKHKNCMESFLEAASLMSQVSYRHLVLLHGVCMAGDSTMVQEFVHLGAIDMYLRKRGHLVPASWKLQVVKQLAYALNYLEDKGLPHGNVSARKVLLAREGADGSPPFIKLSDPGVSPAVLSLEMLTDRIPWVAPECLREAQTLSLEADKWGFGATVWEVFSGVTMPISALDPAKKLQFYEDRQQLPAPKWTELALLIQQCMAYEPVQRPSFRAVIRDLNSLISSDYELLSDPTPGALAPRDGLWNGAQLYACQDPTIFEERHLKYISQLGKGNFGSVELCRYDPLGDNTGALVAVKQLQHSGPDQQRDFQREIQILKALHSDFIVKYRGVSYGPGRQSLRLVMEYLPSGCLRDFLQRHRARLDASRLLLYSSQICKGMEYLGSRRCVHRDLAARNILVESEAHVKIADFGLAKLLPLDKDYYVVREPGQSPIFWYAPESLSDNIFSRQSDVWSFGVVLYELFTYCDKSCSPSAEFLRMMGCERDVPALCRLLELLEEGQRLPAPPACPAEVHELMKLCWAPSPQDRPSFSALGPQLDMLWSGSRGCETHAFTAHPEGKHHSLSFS

TMD8 [25] = experiment: Cell cycle arrest in human TMD8 cells assessed as accumulation of cells at G0/G1 phase at 1 nM after 48 hrs by propidium iodide staining based flow cytometric analysis (reference value: 32.9%); assay type: functional
[26] = target: T1, Tyrosine-protein kinase BTK; experiment: Inhibition of BTK (unknown origin) assessed as residual percent of control at 1 uM measured by DiscoverX kinome scan assay relative to control

T1 sequence (Q06187 whole entry): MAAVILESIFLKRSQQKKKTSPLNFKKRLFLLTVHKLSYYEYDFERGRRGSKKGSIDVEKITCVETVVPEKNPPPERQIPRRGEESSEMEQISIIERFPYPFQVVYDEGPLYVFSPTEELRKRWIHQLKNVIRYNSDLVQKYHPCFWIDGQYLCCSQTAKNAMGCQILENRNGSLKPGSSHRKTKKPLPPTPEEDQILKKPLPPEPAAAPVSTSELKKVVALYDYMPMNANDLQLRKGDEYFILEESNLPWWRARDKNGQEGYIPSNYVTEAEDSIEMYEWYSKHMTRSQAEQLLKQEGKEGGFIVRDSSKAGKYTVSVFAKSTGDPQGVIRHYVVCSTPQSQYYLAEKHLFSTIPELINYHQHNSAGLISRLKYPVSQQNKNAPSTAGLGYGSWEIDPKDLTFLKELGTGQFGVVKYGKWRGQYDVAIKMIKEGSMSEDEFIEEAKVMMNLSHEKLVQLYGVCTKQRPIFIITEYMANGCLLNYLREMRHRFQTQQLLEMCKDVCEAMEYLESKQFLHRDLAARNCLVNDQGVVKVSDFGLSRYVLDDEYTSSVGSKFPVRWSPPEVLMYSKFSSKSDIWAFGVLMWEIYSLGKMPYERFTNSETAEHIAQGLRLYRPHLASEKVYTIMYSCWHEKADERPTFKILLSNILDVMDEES

C=CC(=O)N1CC=C(c2c[nH]c3ncnc(-c4ccc(CNC(=O)c5ccccc5)c(F)c4)c23)CC1
Activity [1]: Toxic | half-life [2]: 35.4 min | AUC(0-inf) [3]: 1470 ng·h/mL | Activity (TMD8 [4]): Active | Activity (TMD8 [5]): 19% | Activity (TMD8 [6]): 6.4% | Tmax [7]: 1.8 min | Activity (TMD8 [8]): 63% | IC50 (Ramos): > 10 µM | Activity [9]: Non-Toxic | Activity (TMD8 [10]): 31.4% | IC50 [11]: > 10 µM | Activity [12]: Non-Toxic | Cmax [13]: 1440 ng/mL | IC50 (SUD4): > 10 µM | Activity [14]: Non-Toxic | Activity [15]: Non-Toxic | clearance [16]: 47.8 mL/min/kg | Cmax [17]: 2250 ng/mL | Activity [18]: Non-Toxic | Activity (TMD8 [19]): 24.6% | Activity [20]: Non-Toxic | IC50 [21]: 0.00149 µM | bioavailability [22]: 41% | Activity [23]: Non-Toxic | Activity [24]: 3.8% | Activity (TMD8 [25]): 33% | Activity [26]: 0.05%
